We go through 85 compounds from PubChem BioAssay AID1959 (Broad Institute, 2009).

As usually defined, the EC50 is the concentration giving half of the maximal effect.

Calls of active or inactive are those of the source.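 The calls were made as follows: active = growth-inhibition EC50 no more than tenfold above the top tested dose; inconclusive = flat fit between 30% and 70% inhibition, or unreliable fit; inactive = EC50 more than tenfold above the top tested dose.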

The subject of this assay is E. coli NEB5alpha growth, BacTiter-Glo luminescence, 4 h. The assay can be described thus: antibacterial activity against E. coli NEB5alpha – luminescence, counter-screen for MEX-5/POS-1 RNA-binding inhibitor project, dose response (AID 1959).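 Also: pUC19-transformed ampicillin-resistant cells grown in LB with ampicillin.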 A general note: A counterscreen serves to expose hits that act by an unwanted route or on another target.
On to `CCNC(=S)N(C)CCc1cc2c(c(OC)c1C=C1C(=O)N(C)C(=O)N(C)C1=O)OCO2`, for which the EC50 is > 11 µM (inactive).

On to `Cn1c(N=Nc2ccc(N3CCOCC3)cc2)[n+](C)c2ccccc21`, for which the EC50 was > 11 µM (inactive).

`CCOC(CNC(=O)CCc1c(C)nc2nc(C)nn2c1C)OCC`: the EC50 is > 11 µM (inactive).

`COc1ccc(/C=C2\SC(=S)N(CCC(=O)NC3CCCC3)C2=O)cc1OC`: the EC50 is > 11 µM (inactive).

`CC1CC=C2C(C#N)=C(N)C(C#N)(C#N)C(c3cccs3)C2C1` (stereo not given): the EC50 was > 11 µM (inactive).

With `CN=C1S/C(=C\c2ccc(O)c(OC)c2)C(=O)N1C`, the EC50 was > 11 µM (inactive).

Take `CCCCN(C)C(=O)CCC(=O)NNc1nc2ccccc2c2nc(C)nn12`: the EC50 is > 11 µM (inactive).

With `O=C1N=c2ccc(Br)cc2=C1c1sc(=O)[nH]c1O`, the EC50 was > 11 µM (inactive).

For the compound `COc1cc(C2C(C#N)=C(N)OC3=C2C(=O)CC(C)(C)C3)c([N+](=O)[O-])cc1OC` (stereo not given), the EC50 was > 11 µM (inactive).

Regarding `Cc1cccn2c(=O)c3cc(S(=O)(=O)c4ccccc4)c(=N)n(Cc4cccnc4)c3nc12`, the EC50 was > 11 µM (inactive).

In the case of `CC1(OC(=O)c2cccs2)C(=O)C=C2C=C(c3ccc(C#N)cc3)OC=C2C1=O` (stereo not given), the EC50 is > 11 µM (inactive).

As to `Nc1cccc2c1C(=O)N(c1ccccc1)C2=O`, the EC50 was > 11 µM (inactive).

Turning to `CC1(OC(=O)c2ccc(Cl)nc2)C(=O)C=C2C=C(c3ccsc3)OC=C2C1=O` (stereo not given), the EC50 is > 11 µM (inactive).

As for `CN(C)Cc1cc(O)c(CN(C)C)cc1O`, the EC50 was > 11 µM (inactive).

Regarding `COc1ccc(OC)c(C2C(C(=O)c3ccco3)=C(O)C(=O)N2CCN2CCOCC2)c1` (stereo not given), the EC50 was > 11 µM (inactive).

Turning to `CNC(=O)c1c(NC(=O)c2ccc(S(=O)(=O)N3CCCc4ccccc43)cc2)sc2c1CCN(C)C2`, the EC50 is > 11 µM (inactive).

For `O=Cc1c(-c2ccccc2)nc2ccccn12`, the EC50 is > 11 µM (inactive).

Turning to `Cc1ccc(/C=C2/Sc3ccc(C(=O)N4CCN(c5ccccn5)CC4)cc3NC2=O)cc1`, the EC50 is > 11 µM (inactive).

In the case of `O=C(N/N=C\C1C(=O)NC(=S)N(c2ccccc2)C1=O)c1ccc(O)cc1` (stereo not given), the EC50 was > 11 µM (inactive).

Take `N#Cc1c(N)nc(SCc2ccncc2)c(C#N)c1-c1cccs1`: the EC50 was > 11 µM (inactive).

`CC(C)(C)c1nn(-c2ccccc2)c2[nH]c(=O)c(CNCc3ccco3)cc12`: the EC50 is > 11 µM (inactive).

For the compound `Cn1cc(/C=N/n2cnc3scc(-c4ccc(Cl)cc4)c3c2=O)c2ccccc21`, the EC50 was > 11 µM (inactive).

As to `CCN1C(=O)/C(=C2\SC(=S)N(NC(=O)c3ccccc3O)C2=O)c2ccccc21`, the EC50 was > 11 µM (inactive).

Consider `N=C1/C(=C\c2ccc(SCc3ccco3)o2)C(=O)N=C2SC=NN12`, for which the EC50 was > 11 µM (inactive).

Regarding `Cc1cc(/C=N/n2cnnc2)c(C)n1-c1ccc(C(=O)O)cc1`, the EC50 was > 11 µM (inactive).

Turning to `O=C(/C=C/c1ccco1)NC(=S)Nc1cccc(C(=O)O)c1`, the EC50 is > 11 µM (inactive).

Turning to `CN(C)c1ccc(/C=C(\C#N)C(=O)NCc2ccco2)cc1`, the EC50 is > 11 µM (inactive).

Regarding `CCn1c(C)cc(/C=C2\C(=O)NC(=O)N(c3ccccc3C)C2=O)c1C`, the EC50 was > 11 µM (inactive).

For `C1=CC2c3ccccc3NC(c3ccncc3)C2C1` (stereo not given), the EC50 was > 11 µM (inactive).

In the case of `N#Cc1c(NC(=O)/C=C/C(=O)O)sc2c1CCN(Cc1ccccc1)C2`, the EC50 is > 11 µM (inactive).

Turning to `Cc1c(N=Cc2c(O)n(C)c(=O)c3ccccc23)c(=O)n(-c2ccccc2)n1C`, the EC50 is > 11 µM (inactive).

Turning to `O=C(/C=C/Nc1ccc([N+](=O)[O-])cc1)c1ccc(Br)cc1`, the EC50 was > 11 µM (inactive).

In the case of `CC(C)Cc1nn2c(N)c(/C=C3\C=Nc4ccccc43)c(=O)nc2s1`, the EC50 is > 11 µM (inactive).

Consider `Cc1noc(/C=C/N(C)C)c1S(=O)(=O)N1CCC(C(=O)O)CC1`, for which the EC50 was > 11 µM (inactive).

As to `CC1C2(C)OC(=N)C(C#N)(C(C)O2)C1(C#N)C#N` (stereo not given), the EC50 is > 11 µM (inactive).

For the compound `CCOCCCn1c(=NC(=O)c2cccs2)c(C#N)cc2c(=O)n3cccc(C)c3nc21`, the EC50 is > 11 µM (inactive).

Consider `CN(C)c1ccc(/C=C/c2nc3ccccc3s2)cc1`, for which the EC50 is > 11 µM (inactive).

Regarding `O=C1NC(=O)C(=Cc2ccc(-c3ccc(S(=O)(=O)N4CCOCC4)cc3)o2)C(=O)N1`, the EC50 is > 11 µM (inactive).

Regarding `O=C(N/N=C/c1c(O)n(CCc2ccccc2)c(=O)[nH]c1=O)c1ccccc1O`, the EC50 was > 11 µM (inactive).

`CC(C)N1CCc2c(sc(NC(=O)c3ccc(S(=O)(=O)N(C)CC4CCCO4)cc3)c2C(N)=O)C1` (stereo not given): the EC50 is > 11 µM (inactive).

For `FC(F)(F)c1ccc2c(c1)C1C=CCC1C(c1ccncc1)N2` (stereo not given), the EC50 was > 11 µM (inactive).

With `Oc1ccc(NC(=S)N=Nc2c(O)[nH]c3ccccc23)cc1`, the EC50 is > 11 µM (inactive).

Regarding `Cc1ccc(S(=O)(=O)C(C#N)c2nc3ccccc3nc2N2CCC(C)CC2)cc1` (stereo not given), the EC50 was > 11 µM (inactive).

On to `CCCNC(=O)c1ccc2c(=O)c(O)c(-c3ccc(F)cc3)[nH]c2c1`, for which the EC50 is > 11 µM (inactive).

`CN1CC=C2C(C#N)=C(N)C(C#N)(C#N)[C@H](c3cccc(Cl)c3)C2C1` (stereo not given in full): the EC50 is > 11 µM (inactive).

Turning to `Cc1c(C(=O)O)cccc1-n1c(C)cc(/C=C(/C#N)C(=O)NCc2ccccc2)c1C`, the EC50 is > 11 µM (inactive).

For the compound `O=C(NNC(=O)c1ccccc1O)c1ccco1`, the EC50 is > 11 µM (inactive).

Consider `O=CN/N=C/c1c(O)ccc2ccccc12`, for which the EC50 is > 11 µM (inactive).

For `Cc1ccc(NC(=O)CN2C(=O)N/C(=C\c3cccn3-c3cccc(C(=O)O)c3)C2=O)cc1`, the EC50 was > 11 µM (inactive).

Take `Cc1nc(S/C(=C/c2ccc(OCc3ccc(C(=O)O)cc3)cc2)C(=O)O)n[nH]1`: the EC50 was > 11 µM (inactive).

Regarding `Cc1cc(C=C2C(=O)c3ccccc3C2=O)c(C)n1-c1ccc(C(=O)O)cc1`, the EC50 was > 11 µM (inactive).

Turning to `O=C1CCC/C(=N/NC(=O)c2sc3ccccc3c2Cl)C1`, the EC50 is > 11 µM (inactive).

On to `Cc1c(C(=O)O)cccc1-n1c(C)cc(C=O)c1C`, for which the EC50 is > 11 µM (inactive).

In the case of `CCN(CC)c1ccc(/C=C/C(=O)c2ccc(Br)cc2)cc1`, the EC50 was > 11 µM (inactive).

On to `CC(=NCc1ccc2c(c1)OCO2)c1c(O)n(-c2ccccc2)c(=O)[nH]c1=O`, for which the EC50 is > 11 µM (inactive).

Turning to `CCn1c(SCc2ccc(C)cc2)nnc1C1CCN(S(=O)(=O)c2ccc(OC)cc2)CC1`, the EC50 was > 11 µM (inactive).

Take `O=C(O)CC(C(=O)O)N1C(=O)/C(=C/C=C/c2ccco2)SC1=S` (stereo not given): the EC50 is > 11 µM (inactive).

In the case of `CC(C)C1Nc2ccc(S(N)(=O)=O)cc2C2C=CCC21` (stereo not given), the EC50 was > 11 µM (inactive).

Turning to `Cc1ccc(-c2nc(C=Nc3ccc(O)cc3)c(O)o2)cc1`, the EC50 is > 11 µM (inactive).

On to `CCN(C(=O)c1cc(Cl)ccc1OC)C1CCCCC1`, for which the EC50 is > 11 µM (inactive).

On to `COc1ccc(CNC(=O)c2cnc3cc(C)ccn3c2=O)cc1`, for which the EC50 is > 11 µM (inactive).

With `CC1=CC(=C2N=C(c3ccccc3)OC2=O)C=C(C)O1`, the EC50 was > 11 µM (inactive).

Regarding `COc1cccc(NC(=O)c2ccccc2Br)c1`, the EC50 is > 11 µM (inactive).

For `Nc1ccc2nc(-c3ccccc3)c(-c3ccccc3)nc2c1`, the EC50 was > 11 µM (inactive).

For the compound `COC(=O)C1=C(C)N=C2SC(C#N)=C(N)N2C1c1cccc(OC)c1` (stereo not given), the EC50 is > 11 µM (inactive).

As to `COc1cc2c(cc1OC)C(c1ccc(-c3ccc(Cl)c(Cl)c3)o1)=NCC2`, the EC50 was > 11 µM (inactive).

As for `CC(C)CNC(=O)C1Nc2ccccc2C2C=CCC12` (stereo not given), the EC50 is > 11 µM (inactive).

Take `CCOc1ccc(-c2nn(-c3ccccc3)cc2/C=C2\SC(=S)N(C3CCS(=O)(=O)C3)C2=O)cc1` (stereo not given): the EC50 was > 11 µM (inactive).

`CCn1c(=N)c(S(=O)(=O)c2ccccc2)cc2c(=O)n3ccccc3nc21`: the EC50 is > 11 µM (inactive).

Regarding `C(#Cc1ccc2c(c1)COc1c3ccccc3nn1-2)c1ccccc1`, the EC50 is > 11 µM (inactive).

As to `CC1=C(C#N)C(=O)NC(=O)/C1=C/c1ccc(-c2ccc(S(N)(=O)=O)cc2)o1`, the EC50 is > 11 µM (inactive).

Regarding `Cc1cc(/C=C2\SC(=O)N(C)C2=O)c(C)n1-c1cccc(C(=O)O)c1`, the EC50 was > 11 µM (inactive).

Turning to `Cc1ccc(NC(=O)COc2ccc(/C=C3/SC(=Nc4ccccc4)N(Cc4cccnc4)C3=O)cc2)cc1`, the EC50 was > 11 µM (inactive).

Turning to `O=S(=O)(c1cccc(-c2csc(-c3cccnc3)n2)c1)N1CCOCC1`, the EC50 was > 11 µM (inactive).

For the compound `O=C(CCl)NCCN1C(=O)S/C(=C\c2cccnc2)C1=O`, the EC50 was > 11 µM (inactive).

On to `Cc1n[nH]c(=S)c2nn(-c3cccc(Cl)c3)c(C)c12`, for which the EC50 was > 11 µM (inactive).

`C=CCN1C(=O)/C(=C2/Sc3ccccc3N2CC)SC1=S`: the EC50 is > 11 µM (inactive).

Regarding `Cc1c(NC(=O)c2coc(=O)c(Br)c2)c(=O)n(-c2ccccc2)n1C`, the EC50 was > 11 µM (inactive).

As to `Cc1cc(/C=c2\sc3nc4ccccc4n3c2=O)c(C)n1-c1ccc(C(=O)O)cc1`, the EC50 is > 11 µM (inactive).

In the case of `Cc1cc(CC(C)C)n(-c2nc3ccccc3c(=O)n2OCc2ccccc2)n1`, the EC50 is > 11 µM (inactive).

On to `Cn1nc(C(F)(F)F)cc1-c1ccc(/C=C(\C#N)C(=O)c2ccccc2)s1`, for which the EC50 is > 11 µM (inactive).

For the compound `Cc1ccc(N(C)S(=O)(=O)c2c(C)noc2/C=C/N(C)C)cc1`, the EC50 was > 11 µM (inactive).

For the compound `Fc1ccc(-c2nc3c(Cl)cc(C(F)(F)F)cn3c2Cl)cc1`, the EC50 is > 11 µM (inactive).

As to `O=c1c(/C=C(\O)c2ccccc2)nc2ccccc2n1-c1ccccc1`, the EC50 was > 11 µM (inactive).

For `CC(=O)Nc1ccc(S(=O)(=O)NCc2nc(-c3cccc(C)c3)no2)cc1`, the EC50 is > 11 µM (inactive).
